Data set [1] has as its system mTLR1 TM peptides (fluorescein labeled donors). Put plainly: FRET between fluorescein and rhodamine labeled TM peptides in PC:Cholesterol LUVs. The conditions noted are these: rhodamine conjugated acceptor added to fluorescein TLR1 TM donors. It is filed as binding, mouse. Here is the method:
Large unilamellar vesicles (LUVs) composed of phosphatidylcholine (PC) and cholesterol (10:1, w/w), were prepared using the extrusion method as described previously (Cohen et al, 2008). The fluorescence experiments were performed with pairs of peptides using fluorescein labeled peptides as donors and rhodamine labeled peptides as acceptors. Fluorescence spectra were obtained at room temperature, with excitation set at 494 nm (10 nm slit) and emission scan at 500-600 nm (10 nm slits), by a Cary eclipse fluorescence spectrophotometer (Varian Inc., Palo Alto, Calif.). In a typical experiment, a fluorescein labeled peptide was first added from a stock solution in DMSO (final concentration of 0.1 μM peptide and 0.25% (v/v) DMSO) to a solution containing PC:Cholesterol LUVs (100 μM) in HEPES buffer. This was followed by the successive addition of rhodamine labeled peptides to a final concentration ranging from 0.025 to 0.4 μM. Fluorescence spectra were obtained before and after the addition of the rhodamine labeled peptides. Fluorescence values were corrected by subtracting the changes in emission obtained by adding HEPES only. […]
Fluorescence Resonance Energy Transfer (FRET) analysis was used for exploring the interactions of the synthetic TM peptides within large unilameler vesicles (LUVs). […]

The nature of a further data set: XTT cytotoxicity assay. Format: cell-based. As to conditions: mouse, RAW264.7 murine macrophages, RAW264.7 cells, 2 hours incubation, 0.78-100 μM, read-out: LC50 (Lethal Concentration at which 50% of cells die). Here is the method:
1×10^4 cells (RAW264.7 murine macrophages, ATCC® Number-TIB-71) per well were grown over night on a 96-well plate. The following day, the media were replaced with 90 μl fresh culture medium and 10 μl solution buffer containing different concentrations of the different peptides mTLR2 TM N′-CtoA (SEQ ID NO:88), mTLR2 TM C′-CtoA (SEQ ID NO:86), mTLR1 TM N′ (SEQ ID NO:77) and mTLR1 TM C′-CtoA (SEQ ID NO:83). Peptide concentrations range from 0.78-100 μM. The cells were then incubated for 2 hours before adding to each well 50 μl of 2,3-bis[2-methoxy-4-nitro-5-sulfophenyl]-2H-tetrazolium-5-carboxanilide inner salt (XTT) reaction solution (Biological Industries). Viability was determined as described previously (Papo et al., 2004 and Papo et al., 2006). The LC50 (the concentration at which 50% of the cells die) for each peptide was obtained from the dose-dependent cell viability curves.

The test system of data set [2] is TLR2. Put plainly: NFkB luciferase reporter in PC3 cells activated with LTA. It is filed as cell-based, human. As to conditions: peptide 20 μM, LTA 50 μg/ml. Here is the method:
(§1) Cells were transfected with a luciferase plasmid under the transcriptional control of NFkB. Upon activation, NFkB trans-locates to the nucleus and induces the expression of luciferase. Cells were activated in the presence of LTA (50 μg/ml) or LPS (1 μg/ml) for 24 hours and were incubated for 2 hours with the hTLR2 TM C′ peptide (SEQ ID NO:83) ([…]) prior to the addition of the activator and washed twice with PBS. Detection of Luc expression was performed by the Steady-Glo assay kit.
(§2) The NFkB responsive element has been widely researched and is known to serve as a specific indication for the presence of the NFkB molecule inside the nucleus. Such a translocation occurs upon activation of the signaling cascade of TLRs, which leads to targeted transcription. This DNA element was introduced into a Luciferase expressing plasmid upstream to the gene thus generating a reporter plasmid for the presence of NFkB in the nucleus. Cells were transfected with the plasmid and 24 hours later were treated with LPS/LTA to induce the signaling cascade through TLR4 and TLR2, respectively. To validate activation, the levels of Luc expression were evaluated using the Steady-Glo kit (Promega) according to manufactures instructions.
On the technique in general: Reporter assays use an easily measured gene product as a stand-in for the process of interest.

In the next data set the test system is TLR4. The experiment in a line: NFkB luciferase reporter in PC3 cells activated with LPS. Format: cell-based, human. As to conditions: peptide 20 μM, LPS 1 μg/ml. Here is the method:
as §1, §2

Another data set deals with PC3. The experiment in a line: Toxicity to PC3 cell line. It is filed as cell-based, human. The conditions noted are these: up to 100 μM (maximal concentration tested). Here is the method: (§3) We synthesized peptides corresponding to either the N-terminus or C-terminus domains of the TM domains of human TLR1, 2 and 5. Each TM domain was divided into two overlapping sequences (Table 2). Activity and toxicity experiments were performed on a peptide corresponding to the C-terminus domain of the TM domain of human TLR2, including the adjacent 5 amino acids from the putative intracellular domain (SEQ ID NO:83, hTLR2-C in Table 2 below, extended with two lysine residues at each of its termini to increase solubility). The peptide was not toxic to either PC3 or LNCaP cell lines at a concentration of up to 100 μM (the maximal concentration tested, data not shown).

The next data set deals with LNCaP. The experiment in a line: Toxicity to LNCaP cell line. It is filed as cell-based, human. As to conditions: up to 100 μM (maximal concentration tested). Here is the method: as §3
The test system of another data set is PC3 cells. Put plainly: mRNA expression of TGFβ and VEGF in cells activated with LPS/LTA. It is filed as cell-based, human. As to conditions: peptide 20 μM, LPS/LTA stimulation. Here is the method:
FIGS. 13A-B show mRNA expression of TGFβ (B) and VEGF (A) in LNCaP and PC3 cells in the absence or presence of LPS/LTA and the peptide hTLR2 TM C′ (SEQ ID NO:83) at a concentration of 20 μM.
One of the main features of metastatic cells is their ability to influence their environment due to the secretion of various cytokines. Two of the most influential cytokines are VEGF which induces the formation of blood vessels, and TGFβ which e.g. induces tolerance of immune cells and inhibits apoptosis. We therefore determined the expression of the mRNA of these cytokines in the cells upon their activation with LPS and LTA and the effect of the peptide on the activation. […] These findings lead us to the hypothesis that the presence of the TLRs on PC3 cells contribute to the severity (aggressiveness) of the cancer and its ability to form metastases. Thus, the TLR TM peptides of the invention can be used as new diagnostic biomarkers, which can indicate the rate of growth and the ability of the cells to form metastases.

Data set [3] concerns TLR2. The experiment in a line: Murine model of acute septic shock caused by LTA (TLR2 hyperactivation). It is filed as in vivo, mice. As to conditions: during the whole experiment. On the procedure:
To examine the effect of TLR TM peptides on acute septic shock driven by TLR2 hyperactivation we have used a murine model as previously described (Meng et al., 2004). Briefly, 12 weeks old C57 Black female mice (supplied by Harlan) were treated with 100 μg of LTA injected IP in a saline solution (pH 6.5) containing 200 μg/ml of D-galactoseamine (Calbiochem). Treated mice received two injections of peptide at doses of 1, 5 and 10 mg/kg. First injection was given at the time of LTA injection, second injection was given 2 hrs (1 mg/kg) or 12 hrs (5 and 10 mg/kg) later. Animals were monitored for survival for 96 hours after LTA injection. Peptides used for in-vivo experiments were treated twice with 20% acetic acid in order to replace the trifluoroacetate anion added during HPLC purification. For all groups n=8.
In order to test the activity of our peptides in-vivo, we have used a murine model for acute septic shock caused by hyperactivation of TLR2. Mice were injected i.p. with 100 μg of LTA and then treated with mTLR2 TM C′-CtoA peptide (SEQ ID NO:86) in different regimes (see materials and methods section (xi)) or with saline only.

Ends that are not written are not given here.

Regarding “GLRILLLKV-NH2 (not fully specified; printed as GLRILLLKV-NH2) [Cp, the core TM peptide of TCRα, negative control]”, in data set [1], the “fluorescence signal decrease (FRET), negative control” value was “no significant fluorescence signal decrease”. Regarding “KKALVSGVAAALLLLILLVGKK-NH2 [mTLR2 N′ TM (C to A)]”, the CC50 at 2 h in the data set “XTT cytotoxicity assay” is > 100 µM. On the same count and under the same terms, in the case of “KKLAVTGAFLALYFDLPWKK-NH2 [mTLR1 C′ TM (C to A)]” it was 50 µM. Consider “KKLAVTGAFLASYFDLPWKK-NH2 [mTLR1 C′ TM (C to A + L605S), kkLAVTGAFLASYFDLPWkk]”, for which the CC50 at 2 h in the data set “XTT cytotoxicity assay” was > 100 µM. Same read-out and setting: the figure for “KKLAVTGAFLCLYFDLPWKK-NH2 [mTLR1 C′ TM, kkLAVTGAFLCLYFDLPWkk]” is > 100 µM. Take KKLILLTGVLCHRFHGLWKK-NH2 [hTLR2 TM C′]: in the data set on TLR2 [2], the “inhibition of Luc expression” value is 40%. The “inhibition of activation (Luc expression)” value in the data set on TLR4 is listed as “could not inhibit”. Also, the toxicity entry in the data set with PC3 and in the data set with LNCaP was “not toxic” each time. Also, the “levels of expression of TGFβ and VEGF mRNA” value with PC3 cells is on record as “drop in the levels of expression”. In the case of “KKLILLVGALAHHFHGLWKK-NH2 [mTLR2 C′ TM (C to A)]”, in the data set “XTT cytotoxicity assay”, the CC50 at 2 h came to 50 µM. In addition, the “adverse effects in treated mice” value in the data set with TLR2 [3] is on record as “no noticeable adverse effects”. As for “KKLILLVGALCHHFHGLWKK-NH2 [mTLR2 C′ TM, kkLILLVGALCHHFHGLWkk]”, the CC50 at 2 h in “XTT cytotoxicity assay” was 50 µM. With “KKLLTVTIGATMLVLAVTGAKK-NH2 [mTLR1 N′ TM]”, in “XTT cytotoxicity assay”, the CC50 at 2 h was > 100 µM.

For the origin of these results see patent publication US9890202B2, “Peptides based on the transmembrane domain of a toll-like receptor (TLR) for treatment of TLR-mediated diseases” (Yeda Research and Development Co. Ltd., priority 2010, dated 2018).
